In this assay the test system is MK-801 pre-treated rats. As to the kind of experiment: Locomotor activity in MK-801 pre-treated rats (antipsychotic activity model). As to conditions: MK-801 0.7 mg/kg i.p., no test compound, recorded between 30 and 60 minutes.

Consider `C[C@]12N[C@H](Cc3ccccc31)c1ccccc12` [MK-801], for which the “Locomotor activity, MK-801 alone” value is given as 48068 counts/30 min.
